Assays:
Assay in all cases: relative viability (nuclei count vs DMSO), 5 days (fraction); higher = more cells survive
201T = test system: 201T
Procedure, shortened: (§1)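 Lung cancer cell lines in 1536-well plates were dosed by pin tool the day after seeding, either with one drug alone or with a fixed anchor-drug dose plus five library-drug doses (not always all listed) in √10 steps. After 5 days, cells were fixed and their nuclei stained in one step (final 0.05% Triton X-100, 1% formaldehyde, 1 ug/ml Hoechst), then counted on 4× images. Relative viability is the nuclei count in treated wells divided by that in vehicle wells. Values are medians of duplicate plates.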

ABC-1 = test system: ABC-1
Procedure, shortened: as §1

BEN = test system: BEN
Procedure, shortened: as §1

CAL-12T = test system: CAL-12T
Procedure, shortened: as §1

COR-L 105 = test system: COR-L 105
Procedure, shortened: as §1

EKVX = test system: EKVX
Procedure, shortened: as §1

HARA = test system: HARA
Procedure, shortened: as §1

HCC-366 = test system: HCC-366
Procedure, shortened: as §1

LK-2 = test system: LK-2
Procedure, shortened: as §1

LOU-NH91 = test system: LOU-NH91
Procedure, shortened: as §1

NCI-H1437 = test system: NCI-H1437
Procedure, shortened: as §1

NCI-H1666 = test system: NCI-H1666
Procedure, shortened: as §1

NCI-H2009 = test system: NCI-H2009
Procedure, shortened: as §1

NCI-H2170 = test system: NCI-H2170
Procedure, shortened: as §1

NCI-H3122 = test system: NCI-H3122
Procedure, shortened: as §1

NCI-H441 = test system: NCI-H441
Procedure, shortened: as §1

NCI-H460 = test system: NCI-H460
Procedure, shortened: as §1

NCI-H661 = test system: NCI-H661
Procedure, shortened: as §1

NCI-H727 = test system: NCI-H727
Procedure, shortened: as §1

PC-14 = test system: PC-14
Procedure, shortened: as §1

Question: For `O=c1cc(-c2cccc3c2Sc2ccccc2S3)oc(N2CCOCC2)c1` + Cc1nc(NC(=O)N2CCC[C@H]2C(N)=O)sc1-c1ccnc(C(C)(C)C(F)(F)F)c1 [Alpelisib] (partner 2 µM), which relative viability (201T; first compound 0.08 µM) is on record?
Answer: 0.98

Question: And the relative viability (201T; first compound 0.253 µM)?
Answer: 1.04

Question: What about the relative viability (201T; first compound 0.8 µM) of the same molecule?
Answer: 1.02

Question: What about the relative viability (201T; first compound 2.53 µM) of the same molecule?
Answer: 0.953

Question: What about the relative viability (201T; first compound 8 µM) of the same molecule?
Answer: 0.913

Question: What about the relative viability (ABC-1; first compound 0.08 µM) of the same molecule?
Answer: 1.17

Question: And the relative viability (ABC-1; first compound 0.253 µM)?
Answer: 1.14

Question: And the relative viability (ABC-1; first compound 0.8 µM)?
Answer: 1.16

Question: What about the relative viability (ABC-1; first compound 2.53 µM) of the same molecule?
Answer: 0.901

Question: What about the relative viability (ABC-1; first compound 8 µM) of the same molecule?
Answer: 0.953

Question: What about the relative viability (BEN; first compound 0.08 µM) of the same molecule?
Answer: 0.912

Question: What about the relative viability (BEN; first compound 0.253 µM) of the same molecule?
Answer: 1.06

Question: And the relative viability (BEN; first compound 0.8 µM)?
Answer: 1.32

Question: What about the relative viability (BEN; first compound 2.53 µM) of the same molecule?
Answer: 1

Question: What about the relative viability (BEN; first compound 8 µM) of the same molecule?
Answer: 1.46

Question: And the relative viability (CAL-12T; first compound 0.08 µM)?
Answer: 1.17

Question: What about the relative viability (CAL-12T; first compound 0.253 µM) of the same molecule?
Answer: 1.28

Question: And the relative viability (CAL-12T; first compound 0.8 µM)?
Answer: 1.56

Question: And the relative viability (CAL-12T; first compound 2.53 µM)?
Answer: 1.1

Question: What about the relative viability (CAL-12T; first compound 8 µM) of the same molecule?
Answer: 0.724

Question: What about the relative viability (COR-L 105; first compound 0.08 µM) of the same molecule?
Answer: 1.1

Question: What about the relative viability (COR-L 105; first compound 0.253 µM) of the same molecule?
Answer: 1.13

Question: What about the relative viability (COR-L 105; first compound 0.8 µM) of the same molecule?
Answer: 0.862

Question: And the relative viability (COR-L 105; first compound 2.53 µM)?
Answer: 0.902

Question: And the relative viability (COR-L 105; first compound 8 µM)?
Answer: 1.12

Question: And the relative viability (EKVX; first compound 0.08 µM)?
Answer: 1.05

Question: What about the relative viability (EKVX; first compound 0.253 µM) of the same molecule?
Answer: 0.963

Question: What about the relative viability (EKVX; first compound 0.8 µM) of the same molecule?
Answer: 0.805

Question: And the relative viability (EKVX; first compound 2.53 µM)?
Answer: 1

Question: And the relative viability (EKVX; first compound 8 µM)?
Answer: 0.755

Question: What about the relative viability (HARA; first compound 0.08 µM) of the same molecule?
Answer: 0.754

Question: And the relative viability (HARA; first compound 0.253 µM)?
Answer: 0.748

Question: What about the relative viability (HARA; first compound 0.8 µM) of the same molecule?
Answer: 0.719

Question: And the relative viability (HARA; first compound 2.53 µM)?
Answer: 0.81

Question: And the relative viability (HARA; first compound 8 µM)?
Answer: 0.584

Question: What about the relative viability (HCC-366; first compound 0.08 µM) of the same molecule?
Answer: 0.345

Question: What about the relative viability (HCC-366; first compound 0.253 µM) of the same molecule?
Answer: 0.547

Question: What about the relative viability (HCC-366; first compound 0.8 µM) of the same molecule?
Answer: 0.269

Question: And the relative viability (HCC-366; first compound 2.53 µM)?
Answer: 0.312

Question: And the relative viability (HCC-366; first compound 8 µM)?
Answer: 0.318

Question: What about the relative viability (LK-2; first compound 0.08 µM) of the same molecule?
Answer: 1.22

Question: And the relative viability (LK-2; first compound 0.253 µM)?
Answer: 1.11

Question: And the relative viability (LK-2; first compound 0.8 µM)?
Answer: 1.49

Question: And the relative viability (LK-2; first compound 2.53 µM)?
Answer: 0.995

Question: And the relative viability (LK-2; first compound 8 µM)?
Answer: 1.75

Question: What about the relative viability (LOU-NH91; first compound 0.08 µM) of the same molecule?
Answer: 0.724

Question: And the relative viability (LOU-NH91; first compound 0.253 µM)?
Answer: 0.764

Question: And the relative viability (LOU-NH91; first compound 0.8 µM)?
Answer: 0.632

Question: What about the relative viability (LOU-NH91; first compound 2.53 µM) of the same molecule?
Answer: 0.593

Question: What about the relative viability (LOU-NH91; first compound 8 µM) of the same molecule?
Answer: 0.713

Question: And the relative viability (NCI-H1437; first compound 0.08 µM)?
Answer: 1.07

Question: What about the relative viability (NCI-H1437; first compound 0.253 µM) of the same molecule?
Answer: 1.08

Question: What about the relative viability (NCI-H1437; first compound 0.8 µM) of the same molecule?
Answer: 1.15

Question: What about the relative viability (NCI-H1437; first compound 2.53 µM) of the same molecule?
Answer: 0.989

Question: What about the relative viability (NCI-H1437; first compound 8 µM) of the same molecule?
Answer: 1.08

Question: And the relative viability (NCI-H1666; first compound 0.08 µM)?
Answer: 0.789

Question: And the relative viability (NCI-H1666; first compound 0.253 µM)?
Answer: 1.13

Question: What about the relative viability (NCI-H1666; first compound 0.8 µM) of the same molecule?
Answer: 0.82

Question: And the relative viability (NCI-H1666; first compound 2.53 µM)?
Answer: 0.854

Question: What about the relative viability (NCI-H1666; first compound 8 µM) of the same molecule?
Answer: 0.681

Question: What about the relative viability (NCI-H2009; first compound 0.08 µM) of the same molecule?
Answer: 1.18

Question: What about the relative viability (NCI-H2009; first compound 0.253 µM) of the same molecule?
Answer: 1.27

Question: What about the relative viability (NCI-H2009; first compound 0.8 µM) of the same molecule?
Answer: 1.18

Question: What about the relative viability (NCI-H2009; first compound 2.53 µM) of the same molecule?
Answer: 1.14

Question: And the relative viability (NCI-H2009; first compound 8 µM)?
Answer: 0.811

Question: What about the relative viability (NCI-H2170; first compound 0.08 µM) of the same molecule?
Answer: 0.791

Question: What about the relative viability (NCI-H2170; first compound 0.253 µM) of the same molecule?
Answer: 0.835

Question: What about the relative viability (NCI-H2170; first compound 0.8 µM) of the same molecule?
Answer: 0.933

Question: What about the relative viability (NCI-H2170; first compound 2.53 µM) of the same molecule?
Answer: 0.747

Question: What about the relative viability (NCI-H2170; first compound 8 µM) of the same molecule?
Answer: 0.841

Question: What about the relative viability (NCI-H3122; first compound 0.08 µM) of the same molecule?
Answer: 0.731

Question: And the relative viability (NCI-H3122; first compound 0.253 µM)?
Answer: 0.902

Question: What about the relative viability (NCI-H3122; first compound 0.8 µM) of the same molecule?
Answer: 0.796

Question: And the relative viability (NCI-H3122; first compound 2.53 µM)?
Answer: 0.746

Question: And the relative viability (NCI-H3122; first compound 8 µM)?
Answer: 0.881

Question: What about the relative viability (NCI-H441; first compound 0.08 µM) of the same molecule?
Answer: 0.736

Question: What about the relative viability (NCI-H441; first compound 0.253 µM) of the same molecule?
Answer: 0.933

Question: What about the relative viability (NCI-H441; first compound 0.8 µM) of the same molecule?
Answer: 1.2

Question: And the relative viability (NCI-H441; first compound 2.53 µM)?
Answer: 0.551

Question: What about the relative viability (NCI-H441; first compound 8 µM) of the same molecule?
Answer: 0.691

Question: What about the relative viability (NCI-H460; first compound 0.08 µM) of the same molecule?
Answer: 0.472

Question: What about the relative viability (NCI-H460; first compound 0.253 µM) of the same molecule?
Answer: 0.682

Question: And the relative viability (NCI-H460; first compound 0.8 µM)?
Answer: 0.451

Question: And the relative viability (NCI-H460; first compound 2.53 µM)?
Answer: 0.57

Question: And the relative viability (NCI-H460; first compound 8 µM)?
Answer: 0.394

Question: And the relative viability (NCI-H661; first compound 0.08 µM)?
Answer: 0.541

Question: What about the relative viability (NCI-H661; first compound 0.253 µM) of the same molecule?
Answer: 0.753

Question: What about the relative viability (NCI-H661; first compound 0.8 µM) of the same molecule?
Answer: 0.594

Question: And the relative viability (NCI-H661; first compound 2.53 µM)?
Answer: 0.512

Question: And the relative viability (NCI-H661; first compound 8 µM)?
Answer: 0.98

Question: What about the relative viability (NCI-H727; first compound 0.253 µM) of the same molecule?
Answer: 0.553

Question: What about the relative viability (NCI-H727; first compound 2.53 µM) of the same molecule?
Answer: 0.47

Question: What about the relative viability (NCI-H727; first compound 8 µM) of the same molecule?
Answer: 0.761

Question: What about the relative viability (PC-14; first compound 0.08 µM) of the same molecule?
Answer: 0.936

Question: And the relative viability (PC-14; first compound 0.253 µM)?
Answer: 1.17

Question: What about the relative viability (PC-14; first compound 0.8 µM) of the same molecule?
Answer: 1.11

Question: What about the relative viability (PC-14; first compound 2.53 µM) of the same molecule?
Answer: 0.821

Question: And the relative viability (PC-14; first compound 8 µM)?
Answer: 1.05

Source: the supplement of paper PMC10307832
